Experimental data: patent US9119847B2, “Neferine and the use thereof in treating huntington disease” (Macau University of Science and Technology, priority 2013, dated 2015)

Experiments:
[1] = ref. [14]; cited from earlier work
[2] = tested on: PC-12 cells; experiment: Quantification of autophagy GFP-LC3 puncta in PC-12 cells; type: cell-based, rat
Procedure: (§1) GFP-LC3 puncta formation was quantified as previously described. In brief, PC-12 cells grown on coverslips in a 6-well plate were fixed in 4% paraformaldehyde for 20 minutes at room temperature and then rinsed with PBS. Slides were mounted with FluorSave™ mounting media (Calbiochem, San Diego, Calif.) and examined by fluorescence microscopy. The number of GFP-positive cells with GFP-LC3 puncta formation was examined under the Nikon ECLIPSE 80i microscope. Representative images were captured with CCD digital camera Spot RT3™ (Diagnostic Instruments, Inc., Melville, N.Y.). To quantify for autophagy, the percentage of cells with punctate GFP-LC3 fluorescence was calculated by counting the number of the cells with punctate GFP-LC3 fluorescence in GFP-positive cells. A minimum of 150 cells from 3 randomly selected fields was scored.
The data of PC-12 cells with GFP-LC3 expression without any treatment of neferine was used as control.

[3] = tested on: LC3-II; experiment: Detection of autophagic marker protein LC3 conversion (western blot); type: cell-based, rat; settings: PC-12 cells, with lysosomal protease inhibitors E64d and pepstatin A (FIG. 1D)
Procedure: After neferine treatments with or without autophagy inhibitor (3-Methyladenine, 3-MA) and protease inhibitor (10 μg/mL E64D and pepstain A), cells were harvested and lysed in RIPA buffer (Cell Signaling Technologies Inc., Beverly, Mass.). The cell lysates were then resolved by SDS-PAGE. After electrophoresis, the proteins from SDS-PAGE were transferred to nitrocellulose membrane which was then blocked with 5% non-fat dried milk for 60 minutes. The membrane was then incubated with LC3 primary antibodies (1:1000) in TBST overnight at 4° C. After that, the membrane was further incubated with HRP-conjugated secondary antibodies for 60 minutes. Finally, protein bands were visualized by using the ECL Western Blotting Detection Reagents (Invitrogen, Paisley, Scotland, UK).
To further confirm its autophagic activity, PC-12 cells treated with neferine were analyzed by western blot for LC3-I to LC3-II conversion. To differentiate that the autophagy effect was due to LC3-II formation, rather than failure of fusion between autophagosome and lysosomes, level of LC3-II was assayed with the presence of two lysosomal inhibitors (E64d and pepstatin A) that […].

[4] = tested on: AMPK-mTOR signaling pathway; experiment: Detection of mTOR signaling marker proteins (p-AMPK, p-p70S6K) and LC3-II by western blot; type: cell-based, rat
Procedure: PC-12 cells were treated with neferine (7.5 μM) from 0-24 h. Cells treated with 0.3 μM of rapamycin (Rap) for 24 h were used as the positive control. Cell lysate was then harvested and analyzed for p-AMPK, AMPK, p-p70S6K, p70S6K and α-tubulin respectively. PC-12 cells were treated with 7.5 μM of neferine with or without AMPK inhibitor (compound C, CC, 5 μM) for 24 h for the detection of LC3-II marker. Cell lysates were analyzed for LC3 I/II and β-actin, respectively. After that, the membrane was further incubated with HRP-conjugated secondary antibodies for 60 minutes. Finally, protein bands were visualized by using the ECL Western Blotting Detection Reagents (Invitrogen).

[5] = tested on: PC-12 cells expressing GFP-LC3; experiment: Quantification of neferine-mediated autophagy (GFP-LC3 puncta) in the presence of compound C; type: cell-based, rat; settings: 7.5 μM neferine plus compound C 5 μM, PC-12 cells (FIGS. 2B, 2C)
Procedure: GFP-LC3 puncta formation was quantified as previously described. In brief, PC-12 cells expressing GFP-LC3 were treated with 7.5 μM neferine in the presence of compound C (CC, 5 μM) for 12 h. The cells were then fixed in 4% paraformaldehyde for 20 minutes at room temperature and then rinsed with PBS. Slides were mounted with FluorSave™ mounting media (Calbiochem) and examined by fluorescence microscopy. To quantify for autophagy, the percentage of cells with punctate GFP-LC3 fluorescence was calculated by counting the number of the cells with punctate GFP-LC3 fluorescence in GFP-positive cells. A minimum of 150 cells from 3 randomly selected fields was scored.

[6] = tested on: mutant huntingtin EGFP-HDQ 55/74; experiment: Removal of mutant huntingtin EGFP-HDQ 55/74, immunoblotting against EGFP; type: cell-based, rat; settings: 7.5 μM neferine, 24 hours, transfected PC-12 cells (FIG. 3)
Procedure: PC-12 cells were transfected transiently with EGFP-HDQ 55/74 plasmids for 24 hours using Lipofectamine Plus LTX reagent (Invitrogen) according to the manufacturer's protocol. The transfected cells were then treated with 7.5 μM neferine for 24 hours. The removal of mutant huntingtin, EGFP-HDQ 55 and 74, was then quantitated by immunoblotting with antibody against EGFP.

[7] = tested on: Atg7 wild-type mouse embryonic fibroblasts (Atg7+/+); experiment: GFP-LC3 puncta in Atg7 wild-type MEFs; type: cell-based; settings: 7.5 μM neferine, 24 h, Atg7+/+ MEFs (FIGS. 4A, 4B)
Procedure: as §1, with “In brief, both Atg7 wild-type and deficient mouse embryonic fibroblasts (MEFs) grown on” for “In brief, PC-12 cells grown on”, “plate were treated with indicated concentrations of neferine. The cells were then fixed in” for “plate were fixed in”

[8] = tested on: Atg7-knockout mouse embryonic fibroblasts (Atg7−/−); experiment: GFP-LC3 puncta in Atg7 deficient MEFs; type: cell-based; settings: 7.5 μM neferine, 24 h, Atg7−/− MEFs (FIGS. 4A, 4B)
Procedure: as §1, with “In brief, both Atg7 wild-type and deficient mouse embryonic fibroblasts (MEFs) grown on” for “In brief, PC-12 cells grown on”, “plate were treated with indicated concentrations of neferine. The cells were then fixed in” for “plate were fixed in”

[9] = tested on: EGFP-HDQ74 transfected Atg7 wild-type MEFs; experiment: Mutant huntingtin aggregates in EGFP-HDQ74 transfected Atg7 wild-type MEFs; type: cell-based, mouse; settings: 7.5 μM neferine, 24 h, Atg7+/+ cells (FIGS. 5A, 5B)
Procedure: (§2) In brief, both EGFP-HDQ74 transfected Atg7 wild-type and deficient mouse embryonic fibroblasts (MEFs) grown on coverslips in a 6-well plate were treated with indicated concentrations of neferine. The cells were then fixed in 4% paraformaldehyde for 20 minutes at room temperature and then rinsed with PBS. Slides were mounted with FluorSave™ mounting media (Calbiochem, San Diego, Calif.) and examined by fluorescence microscopy. The number of cells with GFP-aggregates formation was examined under the Nikon ECLIPSE 80i microscope. Representative images were captured with CCD digital camera Spot RT3™ (Diagnostic Instruments, Inc., Melville, N.Y.). To quantify for the clearance of mutant huntingtin, the percentage of cells with GFP-aggregates was calculated by counting the number of the cells with […] in GFP-positive cells. A minimum of 150 cells from 3 randomly selected fields was scored.

[10] = tested on: EGFP-HDQ74 transfected Atg7 deficient MEFs; experiment: Mutant huntingtin aggregates in EGFP-HDQ74 transfected Atg7 deficient MEFs; type: cell-based, mouse; settings: 7.5 μM neferine, 24 h, Atg7−/− cells (FIGS. 5A, 5B)
Procedure: as §2

[11] = tested on: PC-12 cells; experiment: Cytotoxicity, crystal violet staining cell viability assay; type: cell-based, rat; settings: 7.5 μM neferine, 24 hours, PC-12 cells (FIGS. 6A, 6B)
Procedure: The test compound of neferine was dissolved in dimethyl sulfoxide (DMSO) at a final concentration of 100 mmol/L and stored at −20° C. For cell viability assay measured by crystal violet staining, PC-12 cells were incubated in 35 mm disc followed by the addition of 7.5 μM neferine for 24 hours. The cells were then incubated with crystal violet for 10 minutes followed by a ddH2O wash. The stained cell images were captured by CCD digital camera Spot RT3™ under the Nikon ECLIPSE 80i microscope with 4× magnification. Cell viability was quantified by dissolving stained cells in 10% acetic acid (200 μL/well). The colorimetric reading of the solute mixture was then determined by spectrophotometer at OD 560 nm. The percentage of cell viability was calculated using the following formula: Cell viability (%)=Cells number treated/Cells number DMSO control×100. Data were obtained from three independent experiments.

[12] = tested on: PC-12 cells transfected with mutant huntingtin EGFP-HDQ 55 and 74; experiment: MTT cytotoxicity assay in PC-12 cells expressing mutant huntingtin; type: cell-based, rat; settings: 7.5 μM neferine, 24 h, PC-12 cells with EGFP-HDQ 55 or EGFP-HDQ 74 (FIG. 7)
Procedure: Cell cytotoxicity assay: Cytotoxicity was assessed using the 3-(4,5-dimethylthiazol-2-yl)-2,5-diphenyltetrazolium bromide assay. PC-12 cells were transfected with or without mutant huntingtin EGFP-HDQ 55 and 74 for 16 h, the PC-12 cells (4000 cells) were then seeded on 96-well plates per well and then exposed to 7.5 μM of neferine for 24 h […]. Subsequently, 10 μL of MTT reagents was added to each well and incubated at 37° C. for 4 hours, followed by the addition of 100 μL solubilization buffer (10% SDS in 0.01 mol/L HCl) and overnight incubation. Absorbance at 585 nm was determined from each well on the following day. The percentage of cell viability was calculated using the following formula: Cell viability (%)=Cells number treated/Cells number DMSO control×100. Data was obtained from three independent experiments.

[13] = tested on: mutant huntingtin; settings: mouse model of Huntington's disease, ref. [10]; cited from earlier work
[14] = 7.5 μM neferine, 0-24 h, PC-12 cells (FIG. 2A)

O=c1c(O)c(-c2ccc(O)c(O)c2)oc2cc(O)ccc12 [fisetin]
bioavailability [1]: poor bioavailability
effective concentration [1]: high effective concentration
lipophilicity [1]: low lipophilicity

COc1ccc(C[C@@H]2c3cc(Oc4cc(C[C@@H]5c6cc(OC)c(OC)cc6CCN5C)ccc4O)c(OC)cc3CCN2C)cc1 [neferine]
percentage of cells with GFP-LC3 puncta formation ([2]; 7.5 μM neferine, 24 h, PC-12 cells with GFP-LC3 expression, vs untreated control (FIGS. 1B, 1C)): increased the percentage of cells with GFP-LC3 puncta formation significantly
GFP-LC3 puncta formation in presence of autophagy inhibitor 3-MA ([2]; neferine plus 3-Methyladenine (3-MA), PC-12 cells): significant reduction in GFP-LC3 puncta formation
rate of LC3-II formation (LC3-I to LC3-II conversion) [3]: increases the rate of LC3-II formation
LC3-II level in presence of AMPK inhibitor compound C ([4]; 7.5 μM neferine plus compound C 5 μM, 24 h, PC-12 cells, western blot (FIG. 2D)): decrease in LC3-II level
p70S6K phosphorylation [4, 14]: concomitant reduction in its downstream p70S6K phosphorylation
phosphorylation of AMPK [4, 14]: activate the phosphorylation of AMPK in a time dependent manner
neferine-induced GFP-LC3 puncta formation in presence of AMPK inhibitor compound C [5]: significant reduction in neferine-induced GFP-LC3 puncta formation
clearance of overexpressed EGFP-tagged mutant huntingtin EGFP-HDQ 55 [6]: enhanced the clearance
clearance of overexpressed EGFP-tagged mutant huntingtin EGFP-HDQ 74 [6]: enhanced the clearance
GFP-LC3 puncta formation [7]: induce GFP-LC3 puncta formation
GFP-LC3 puncta formation [8]: not in Atg7-knockout mouse embryonic fibroblasts
clearance of mutant huntingtin EGFP-HDQ74 inclusions [9]: enhance the clearance of mutant huntingtin EGFP-HDQ74 inclusions
clearance of mutant huntingtin EGFP-HDQ74 inclusions [10]: not in autophagy-deficient cells
cytotoxicity / morphological damage (crystal violet assay) [11]: no significant morphological damage
cell death induced by mutant huntingtin (cell viability, MTT) [12]: attenuated cell death induced by mutant huntingtin

C1COC(NC(C2CC2)C2CC2)=N1 [rilmenidine]
toxicity of mutant huntingtin [13]: attenuate the toxicity of mutant huntingtin
